Common to all, as to format: in vitro ADME
For data set [1], the target named is T1, OCT2 (Homo sapiens, UniProt O15244).
T1 construct: host or cells: HEK293
T1 sequence (O15244 1-555): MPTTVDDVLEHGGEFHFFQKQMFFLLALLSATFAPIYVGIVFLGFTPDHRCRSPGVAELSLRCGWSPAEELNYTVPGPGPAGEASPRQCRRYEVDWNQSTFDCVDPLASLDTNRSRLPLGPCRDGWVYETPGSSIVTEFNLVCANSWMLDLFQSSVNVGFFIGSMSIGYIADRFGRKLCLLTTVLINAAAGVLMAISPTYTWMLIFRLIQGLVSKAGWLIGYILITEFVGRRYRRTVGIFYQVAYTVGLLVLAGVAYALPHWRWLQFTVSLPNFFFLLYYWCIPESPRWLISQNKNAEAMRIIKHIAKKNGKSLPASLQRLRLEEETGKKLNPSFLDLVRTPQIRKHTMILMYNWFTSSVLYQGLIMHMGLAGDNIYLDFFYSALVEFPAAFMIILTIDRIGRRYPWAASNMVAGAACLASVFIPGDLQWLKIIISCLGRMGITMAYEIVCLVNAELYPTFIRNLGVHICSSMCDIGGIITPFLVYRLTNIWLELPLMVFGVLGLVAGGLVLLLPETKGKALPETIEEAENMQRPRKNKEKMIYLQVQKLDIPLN
In words: [14C]fluciclovine uptake by OCT2-expressing cells. The note with it: OCT2 cells vs mock cells.

Data set [2] deals with T2, OATP1B3 (Homo sapiens, UniProt Q9NPD5).
T2 construct: host or cells: HEK293
T2 sequence (Q9NPD5 1-702): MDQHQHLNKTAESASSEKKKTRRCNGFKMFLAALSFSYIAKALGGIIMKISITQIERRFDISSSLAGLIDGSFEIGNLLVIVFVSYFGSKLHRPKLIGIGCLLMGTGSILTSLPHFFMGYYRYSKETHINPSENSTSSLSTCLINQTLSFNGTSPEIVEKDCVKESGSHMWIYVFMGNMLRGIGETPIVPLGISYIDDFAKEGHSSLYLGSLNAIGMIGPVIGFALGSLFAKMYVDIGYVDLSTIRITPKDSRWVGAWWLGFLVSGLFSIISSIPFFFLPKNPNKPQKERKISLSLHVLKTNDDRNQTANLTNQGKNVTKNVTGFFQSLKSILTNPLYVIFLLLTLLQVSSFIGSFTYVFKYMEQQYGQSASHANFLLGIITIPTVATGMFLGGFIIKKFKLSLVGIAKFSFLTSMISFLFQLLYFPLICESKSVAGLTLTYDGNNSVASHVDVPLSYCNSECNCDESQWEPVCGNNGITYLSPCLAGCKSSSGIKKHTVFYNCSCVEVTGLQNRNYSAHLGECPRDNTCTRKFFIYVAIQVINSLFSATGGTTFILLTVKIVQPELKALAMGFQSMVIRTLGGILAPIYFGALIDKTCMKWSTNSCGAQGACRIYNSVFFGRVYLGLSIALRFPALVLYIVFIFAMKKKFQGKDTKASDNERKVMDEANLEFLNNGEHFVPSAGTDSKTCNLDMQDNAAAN
In words: [14C]fluciclovine uptake by OATP1B3-expressing cells. The note with it: OATP1B3 cells vs mock cells. As to the method: (§1) For the SLC transporter experiments, Mock Flp-in-293 cells (Flp/mock), OAT1-expressing Flp-in-293 cells (Flp/OAT1), mock HEK293 cells (HEK/mock), and OATP1B3-expressing HEK293 cells (HEK/OATP1B3) were obtained from Kanazawa University (Ishikawa, Japan). Briefly, Flp-in-293 and HEK293 cells were transfected with the appropriate plasmid DNA and selected using antibiotics (hygromycin or G-418). All cell lines were cultured in DMEM (Life Technologies Japan) supplemented with 10% (v/v) fetal bovine serum (American Type Culture Collection) and antibiotics (100 U/mL penicillin and 100 μg/mL streptomycin (Life Technologies Japan) for mock cells, 0.2 mg/mL hygromycin for Flp/OAT1 cells, and 1.2 mg/mL G-418 (Roche Diagnostics K.K., Tokyo, Japan) for HEK/OATP1B3 cells) at 37 °C under an atmosphere containing 5% CO2. […]
(§2) The experiments were performed as described previously, with minor modifications. […] The cells were lysed in 0.3 mL of 0.1N NaOH at room temperature, after which the radioactivity of each aliquot was measured as described above. The protein concentration of the cell lysate was determined with a VersaMax microplate reader (Molecular Devices Japan K.K., Osaka, Japan) or SpectraMax i3x (Molecular Devices Japan K.K.; only for OATP1B1) using a BCA Protein Assay Kit (Thermo Fisher Scientific, Kanagawa, Japan). Tracer uptake was expressed as pmol/mg protein. […]

The target of data set [3] is T3, human P-gp (Homo sapiens, UniProt P08183).
T3 construct: purchased GenoMembrane Co., Ltd. (Kanagawa, Japan); host or cells: Sf9
Kind of data set: [14C]fluciclovine uptake by P-gp-expressing inside-out vesicles. As to the method:
For ABC transporters, experimental kits containing Sf9-derived vesicles with high expression levels of human P-gp, MRP4, BCRP, and each ABC transporter (including buffer, ATP/AMP solution, and glutathione) were purchased from GenoMembrane Co., Ltd. (Kanagawa, Japan).
Vesicular transport assays were carried out according to the manufacturer’s protocol. […] The reaction was started by suspending 50 μg of vesicles (10 μL) in 40 μL of the reaction buffer. After incubation for an appropriate period of time, the reaction was stopped by the addition of ice-cold stop buffer (40 mM MOPS-Tris and 70 mM KCl; pH 7.0), after which the solution was filtered through a 0.45 μm HA filter (Millipore Corp., Billerica, MA, USA) using suction, and was washed twice in 5 mL of ice-cold stop buffer. The radioactivity of the filter was measured with a Tri-Carb 2910TR liquid scintillation counter (PerkinElmer) using Ultima Gold (PerkinElmer). The amount of tracer uptake was normalized to the membrane protein amount described in the product information sheets.

In data set [4] the target is T2, OATP1B3. Kind of data set: Inhibition of tracer uptake in OATP1B3-expressing cells. The settings on record: OATP1B3, tracer [3H]E2G 0.1 µM, 100 µM–10 mM fluciclovine. As to the method:
as §1, §2

The structures appear in SMILES notation.

T3 sequence (P08183 whole entry): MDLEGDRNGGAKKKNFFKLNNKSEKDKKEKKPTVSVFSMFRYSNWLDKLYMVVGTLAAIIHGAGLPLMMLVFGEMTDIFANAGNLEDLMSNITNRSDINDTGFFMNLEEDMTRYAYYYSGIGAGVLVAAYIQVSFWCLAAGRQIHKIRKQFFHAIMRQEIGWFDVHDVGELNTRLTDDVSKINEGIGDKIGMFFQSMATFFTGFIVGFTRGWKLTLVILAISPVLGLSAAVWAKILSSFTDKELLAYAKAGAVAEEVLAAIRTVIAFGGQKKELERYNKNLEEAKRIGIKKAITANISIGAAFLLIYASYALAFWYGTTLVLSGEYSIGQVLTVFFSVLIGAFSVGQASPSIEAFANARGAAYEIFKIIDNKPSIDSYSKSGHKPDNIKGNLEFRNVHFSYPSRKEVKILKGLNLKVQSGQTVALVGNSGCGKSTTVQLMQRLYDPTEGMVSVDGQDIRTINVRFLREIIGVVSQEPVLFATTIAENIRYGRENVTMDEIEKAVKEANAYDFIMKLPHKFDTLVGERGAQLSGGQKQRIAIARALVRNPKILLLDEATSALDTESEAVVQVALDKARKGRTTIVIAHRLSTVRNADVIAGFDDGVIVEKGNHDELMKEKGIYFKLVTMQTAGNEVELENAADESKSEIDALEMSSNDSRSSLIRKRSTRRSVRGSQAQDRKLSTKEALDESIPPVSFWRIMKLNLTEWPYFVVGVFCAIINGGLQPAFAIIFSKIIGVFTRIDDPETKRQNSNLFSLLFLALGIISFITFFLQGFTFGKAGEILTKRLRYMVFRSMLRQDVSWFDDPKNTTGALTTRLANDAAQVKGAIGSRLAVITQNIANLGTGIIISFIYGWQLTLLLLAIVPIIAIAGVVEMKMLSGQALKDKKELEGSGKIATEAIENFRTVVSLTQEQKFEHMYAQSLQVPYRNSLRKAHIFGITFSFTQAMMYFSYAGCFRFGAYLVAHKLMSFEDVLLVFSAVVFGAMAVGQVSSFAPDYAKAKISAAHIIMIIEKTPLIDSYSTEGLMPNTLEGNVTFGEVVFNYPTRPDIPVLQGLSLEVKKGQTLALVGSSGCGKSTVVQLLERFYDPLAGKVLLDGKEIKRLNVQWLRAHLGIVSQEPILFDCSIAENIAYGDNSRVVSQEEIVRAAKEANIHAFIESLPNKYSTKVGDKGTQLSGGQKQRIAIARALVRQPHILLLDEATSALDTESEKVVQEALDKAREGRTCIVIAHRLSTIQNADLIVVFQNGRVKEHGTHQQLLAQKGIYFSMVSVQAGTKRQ

On to `N[14C]1(C(=O)O)CC(F)C1` (stereo not drawn) [[^14C]fluciclovine, trans-1-amino-3-fluoro[1-^14C]cyclobutanecarboxylic acid], for which the drug transporter-mediated uptake entry in data set [1] and in data set [2] was “negligible” each time. The “uptake compared with control vesicles” value in data set [3] is on record as “no significant difference”.
As for `N[C@]1(C(=O)O)C[C@@H](F)C1` [fluciclovine], the “inhibition by fluciclovine at millimolar concentrations observed” value in data set [4] is recorded as “not”.

Values taken from paper PMC5085761 (International Journal of Molecular Sciences, 2016).
